Experimental data: patent US20050209319A1, “Treatment of local pain” (XenoPort, Inc., priority 2004, published 2005)
Read-outs that look alike come from different tables or passages of the source.

Assays:
Caco-2 cell monolayers = experiment: Permeability across Caco-2 cell monolayers (cultured human epithelial cell monolayer assay); format: in vitro ADME; settings: for Permeability coefficient (Papp) A to B: apical to basolateral; for Permeability coefficient (Papp) A to B / Permeability coefficient (Papp) B to A: donor 100-200 μM, 1 hr at 37° C, apical pH 6.5, basolateral pH 7.4; for Permeability coefficient (Papp) B to A: basolateral to apical
Text: The following comparative test was run to determine the permeability of gabapentin and a prodrug of gabapentin across a cultured monolayer of human mucosal tissue cells (intestinal epithelial cells). Intestinal epithelial cells have an apical side (i.e., the side normally facing the gut lumen) and a basolateral side (i.e., the side normally facing the patient's internal blood carrying tissues). Both the permeability of the compounds through the monolayer of cells from apical to basolateral (A to B) and basolateral to apical (B to A) were measured.
Caco-2 cells were obtained from the ATCC (Manassas, Va.) and cultured as indicated by the supplier. Caco-2 cells were seeded into 24-well transwell plates with 3 μm filters (Corning/Costar, Acton, Mass.) at a density of 500,000 cells/well and allowed to differentiate in the transwell plates for 21 days. The test compounds were dissolved into either pH 6.5 (apical MES (4-morpholineethane sulfonic acid) buffer) or pH 7.4 (basolateral HBSS (Hanks balanced salt solution) buffer) at concentrations of 100 to 200 μM and added to the appropriate chambers. Samples were removed from the receiving chambers at various times and the permeability was measured by determining the concentration of prodrug and gabapentin (produced by esterase cleavage within the epithelial cells) by LC/MS/MS (liquid chromatography/mass spectroscopy/mass spectroscopy). Apparent permeability coefficients (“Papp”) were calculated by standard methods (B. H. Stewart et al., Pharm. Res., 1995, 12, pp. 693-699). Integrity of the monolayer was confirmed by determining the permeability of 3H-inulin. If greater than 0.5% of the inulin was detected in the receiving chamber, the transwells were discarded.

[1] = Parallel artificial membrane permeability assay (PAMPA); format: in vitro ADME; settings: for Passive permeability in vitro across artificial membranes (in words): PAMPA assays; for Papp at 2 h, 50 µM: PAMPA
Protocol: Artificial membranes were prepared by adding 4 μL of 2% (w/v) dioleoylphosphatidyl-choline in dodecane onto the hydrophobic filters ([…] polyvinylidene fluoride) on the base of the wells of a 96-well donor plate (Millipore, Bedford, Mass.). Gabapentin or a gabapentin prodrug (150 μL of 50 μM solution in 0.1 M Tris buffer, pH 6.5 or pH 7.4) was added to the donor wells in triplicate. The gabapentin prodrug used was 1-{[(α-isobutanoyloxyethoxy)carbonyl]-aminomethyl}-1-cyclohexane acetic acid. The plate was placed onto a 96-well acceptor plate (Agilent, Wilmington, Del.), in which each well contained 400 μL 0.1 M Tris, pH 7.4. Following incubation for two hours at room temperature, samples of the donor and receiver chambers were removed for analysis by LC/MS/MS. The permeability coefficient through the artificial membrane (“Pam”) was calculated using standard methods (Sugano et al., Int. J. Pharm., 2001, 228, pp. 181-188). The artificial membrane permeability coefficient, Pam, of 1-{[(α-isobutanoyloxyethoxy)carbonyl]-aminomethyl}-1-cyclohexane acetic acid was about 5 to 30 times higher than the Pam for gabapentin at the two test pH values as shown in Table 2.

[2] = injection into hindpaw of rats pretreated with 2% formalin injection; cited from earlier work

Row | Structure (SMILES) | Passive permeability in vitro through Caco-2 cell monolayers (in words) (Caco-2 cell monolayers) | Permeability coefficient (Papp) A to B (Caco-2 cell monolayers) | Permeability coefficient (Papp) B to A (Caco-2 cell monolayers) | Papp compared with the Papp for gabapentin (Caco-2 cell monolayers; from the basolateral to the apical side) | Passive permeability in vitro across artificial membranes (in words) [1] | Permeability coefficient (Pam) pH 6.5 ([1]; donor chamber pH 6.5, 50 μM, two hours at room temperature, acceptor pH 7.4) | Permeability coefficient (Pam) pH 7.4 ([1]; donor chamber pH 7.4, 50 μM, two hours at room temperature, acceptor pH 7.4) | Passive permeability in vitro through Caco-2 cell monolayers (in words) (Caco-2 cell monolayers; Caco-2) | Papp at 2 h, 50 µM ([1]; donor chamber pH 6.5, 50 μM, two hours at room temperature, acceptor pH 7.4, read-out: Permeability coefficient (Pam) pH 6.5) | Papp at 2 h, 50 µM ([1]; donor chamber pH 7.4, 50 μM, two hours at room temperature, acceptor pH 7.4, read-out: Permeability coefficient (Pam) pH 7.4) | Effect on nociceptive behavior [2]
1 | CC(OC(=O)NCC1(CC(=O)O)CCCCC1)OC(=O)C(C)C (stereo not drawn) [1-{[(α-isobutanoyloxyethoxy)carbonyl]-aminomethyl}-1-cyclohexane acetic acid] | relatively high passive permeability | 31 (cm/sec) × 10^6 | 5.7 (cm/sec) × 10^6 | significantly higher | relatively high passive permeability | 0.65 (cm/sec) × 10^6 | 0.095 (cm/sec) × 10^6 |  |  |  | 
2 | NCC1(CC(=O)O)CCCCC1 [Gabapentin] |  | 3.2 (cm/sec) × 10^6 | 3.4 (cm/sec) × 10^6 |  | limited passive permeability |  |  | limited passive permeability | 0.02 ×10⁻⁶ cm/s | 0.026 ×10⁻⁶ cm/s | significantly reduced nociceptive behavior
